Data published in patent EP0107165A1, “Substituted 9H-8-oxo-pyrimido(2,1-f)purine-2,4-diones, process for their production and pharmaceutical compositions containing them” (SCHERING CORPORATION, priority 1982, dated 1984).

Legend:
[1] = system: RPAR Synovitis; assay: Reversed Passive Arthus-Reaction (RPAR) Synovitis technique; type: in vivo, male Lewis rats; conditions: dosage of 50 mpk, oral, split dose (half one hour before, half three hours after lesion induction); delta synovial weight about 17 hours after lesion induction; Lewis rat
Method: The anti-inflammatory potential of the compounds of the present invention may be determined by the Reversed Passive Arthus-Reaction (RPAR) Synovitis technique as set forth below using male Lewis rats (obtained from Charles River Breeding Laboratories) weighing 200-250 g. The potency of the compounds is determined using indo- methacin as the standard. On the basis of the test results, a dosage range of about 0.1 milligrams per kilogram of body weight per day to about 50 milligrams per kilogram of body weight per day in divided doses at about 4 hour intervals is recommended. For the preferred compounds of the invention tested, it is considered that the compounds are effectively non-toxic at the dose- rates indicated for treatment of inflammatory conditions. […]
The following morning (about 17 hours after lesion induction) the rat is killed and both knee joints are exposed. […] Differences in delta synovial weight between lesion controls and drug- treated rats are evaluated for statistical significance with an analysis of variance. Relative potencies are determined with a linear regression analysis. […]

[2] = Ulcerogenicity test (oral administration); type: in vivo; conditions: dosages as high as 100mpk

SMILES | percentage inhibition of inflammation (I) [1] [%] | ulcerogenic [2]
CCCc1c(O)n(Cc2ccccc2)c2nc3c(c(=O)n(C)c(=O)n3C)n2c1=O [A, 9-benzyl-1,3-dimethyl-8-hydroxy-7-n-propyl-9H-6-. oxo-pyrimido[2,1-f]purine-2,4-dione] | 46 | not to be ulcerogenic
CCCCc1c(O)n(Cc2ccccc2)c2nc3c(c(=O)n(C)c(=O)n3C)n2c1=O [B, 9-benzyl-1,3-dimethyl-8-hydroxy-7-(n-butyl)-9H-6-oxo-pyrimido[2,1-f]purine-2,4-dione] | 48 | 
